What was measured:
[1] = Particle size and polydispersity index of nanoparticle compositions (Zetasizer Nano ZS); format: physicochemical
Method in brief: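 Nanoparticle compositions are diluted in 1×PBS, then size and polydispersity index are read on a Zetasizer Nano ZS instrument.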

[2] = Encapsulation efficiency of RNA (QUANT-IT RIBOGREEN RNA assay); format: physicochemical; settings: for % Encapsulation: lipid nanoparticle, ±SD within one assay run (Table 37)
Method in brief: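 RiboGreen fluorescence (ex ~480, em ~520 nm) compared between intact samples and Triton X-100-lysed samples after 15 min at 37 °C in TE buffer, pH 7.5. Percent free RNA is the blank-corrected intact/disrupted ratio.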

luciferase (Luc) mRNA [3] = assay: Luc expression (total flux) after intramuscular administration; format: in vivo, mice; settings: for Novel lipid/MC3 expression ratio, 6 hr. time point, i.m. Luc: relative to MC3 formulation; for Total flux, 0.001 mpk Dose / Total flux, 0.01 mpk Dose: 6 hours after intramuscular administration, Luc mRNA and H10 mRNA
Method in brief: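 Mice given a single intramuscular dose of lipid nanoparticle formulations carrying modified Luc mRNA, alone or with H10 mRNA, at 0.001 or 0.01 mpk total. Luciferase expression recorded as total flux.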

luciferase (Luc) mRNA [4] = assay: Luc expression in liver, lung, spleen and femur 6 hours after intravenous administration; format: in vivo; settings: mice, 0.5 mpk; for Total Flux Liver / Total Flux Lung / Total Flux Spleen / Total Flux Femur: intravenous
Method in brief: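 LNP-formulated mRNA given IV to mice (n=3) at 0.5 mpk; at 6 h, bioluminescence imaged ex vivo 15 min after IP D-luciferin (15 mg/mL, 200 μL), organs imaged within 25 min. Values are total flux by region of interest.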

IL-6, IP-10 = assay: Cytokine induction in mice upon intravenous administration; format: in vivo; design: Cytokine induction IL-6 / Cytokine induction IP-10: unit not given here; settings: 0.5 mpk, 6 hours; for Cytokine induction IL-6 / Cytokine induction IP-10: intravenous; for IP-10 induction / IL-6 induction: i.v., in words
Method in brief: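 Mice dosed intravenously with nanoparticle compositions at 0.5 mpk; serum cytokine concentrations (IL-6, IP-10) measured at 6 hours. MC3 formulation and PBS controls run alongside.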

[5] = Table 1A, lipid:DSPC:cholesterol:PEG-DMG 50:10:38.5:1.5 mol %
[6] = lipid nanoparticle, ±SD within one assay run (Table 37)
[7] = Table 1B, formulated with hEPO mRNA
[8] = Table 1C, compositions for subcutaneous administration
[9] = Table 1D, for subcutaneous administration, # formulated with hEPO mRNA
[10] = nanoparticle composition with hEPO mRNA (Table 30)

SMILES | PDI ([1]; Table 1A) | Size (nm) [1, 5] | EE (%) ([2]; Table 1A) | Total Flux Liver (luciferase (Luc) mRNA [4]) | Total Flux Lung (luciferase (Luc) mRNA [4]) | Total Flux Spleen (luciferase (Luc) mRNA [4]) | Cytokine induction IL-6 (IL-6, IP-10) | Cytokine induction IP-10 (IL-6, IP-10) | Total flux, 0.001 mpk Dose (luciferase (Luc) mRNA [3]) | Total flux, 0.01 mpk Dose (luciferase (Luc) mRNA [3]) | Total Flux Femur (luciferase (Luc) mRNA [4]) | further results
CCCCCCCCCOC(=O)CCCCCCCN(CCO)CCCCCCC(=O)OCC(CCCCCCCC)CCCCCCCC [Compound 143, Nonyl 8-((2-hydroxyethyl)(7-((2-octyldecyl)oxy)-7-oxoheptyl)amino)octanoate] | 0.21 | 98.8 nm | 97.37% | 1.76E+09 | 3.60E+07 | 1.42E+08 | 6.245 | 209.63 | – | – | – | AUC (p/s * h) (luciferase (Luc) mRNA [3]; Table 3H, intramuscular, Luc): 2.29E+09 p/s * h; Lipid/MC3 AUC (luciferase (Luc) mRNA [3]; Table 3H, intramuscular, Luc): 3.89; Novel lipid/MC3 expression ratio, 6 hr. time point, i.m. Luc (luciferase (Luc) mRNA [3]; intramuscular): 4.05
CCCCCCCCCN(CCCO)CCCCCCCC(=O)OC(CCCCCCCC)CCCCCCCC [Compound 7, Heptadecan-9-yl 8-((3-hydroxypropyl)(nonyl)amino)octanoate] | 0.22 | 118.9 nm | 86.10% | 2.49E+09 | 3.95E+07 | 4.83E+08 | 116.35 | 4959.16 | 3.65E+06 p/s | 7.48E+07 p/s | – | Flux in the spleen (luciferase (Luc) mRNA [4]; i.v., in words): highest; IP-10 induction (IL-6, IP-10): highest
CCCCCCCCC(CCCCCCCC)OC(=O)CCCCCCCN(CCO)CCCCCCCC(=O)OC(CCCCCCCC)CCCCCCCC [Compound 29, Di(heptadecan-9-yl) 8,8′-((2-hydroxyethyl)azanediyl)dioctanoate] | 0.11 | 66.8 nm | 96.99% | 5.20E+08 | 9.83E+05 | 5.99E+06 | 69.54 | 1362.81 | 7.64E+05 p/s | 1.12E+07 p/s | 9.56E+05 | PDI (Polydispersity index) [1, 6]: 0.11 ± 0.03; Size [1, 6]: 66.8 ± 1.1 nm; % Encapsulation [2]: 97.0 ± 0.6%; Fold increase in Luc expression relative to MC3, Intramuscular (0.001 mpk dose) (luciferase (Luc) mRNA [3]; intramuscular): 0.11; Fold increase in Luc expression relative to MC3, Intramuscular (0.01 mpk dose) (luciferase (Luc) mRNA [3]; intramuscular): 0.25
CCCCCCCCCOC(=O)CCCCCCCN(CCCCCCCC(=O)OC(CCCCCCCC)CCCCCCCC)C[C@H](C)O [Compound 12, Heptadecan-9-yl (S)-8-((2-hydroxypropyl)(8-(nonyloxy)-8-oxooctyl)amino)octanoate] | 0.17 | 116.7 nm | 92.44% | 6.84E+08 | 7.45E+06 | 6.82E+07 | 3.88 | 32.03 | 8.02E+04 p/s | 8.90E+05 p/s | – | IL-6 induction (IL-6, IP-10): lowest; IP-10 induction (IL-6, IP-10): lowest
CCCCCCCCC(CCCCCCCC)OC(=O)CCCCCCCN(CCO)CCCCCC [Compound 5, Heptadecan-9-yl 8-(hexyl(2-hydroxyethyl)amino)octanoate] | 0.21 | 196.4 nm | 77.07% | 5.84E+07 | 1.89E+06 | 1.55E+08 | 94.07 | 487.16 | 9.84E+05 p/s | 3.55E+06 p/s | 1.22E+06 | –
CCCCCCCCC(CCCCCCCC)OC(=O)CCCCCCCN(CCO)CCCCCCCC(=O)OCC1CC1CCCCCC (stereo not drawn) [Compound 28, Heptadecan-9-yl 8-((8-((2-hexylcyclopropyl)methoxy)-8-oxooctyl)(2-hydroxyethyl)amino)octanoate] | 0.20 | 99.4 nm | 97.03% | 1.22E+10 | 2.17E+08 | 1.80E+08 | 17.47 | 283.13 | 6.73E+05 p/s | 5.56E+06 p/s | – | Flux in the liver (luciferase (Luc) mRNA [4]; i.v., in words): highest; IL-6 induction (IL-6, IP-10): lowest
CCCCCCCCCOC(=O)CCCCCCCN(CCO)CCCCCCCC(=O)N(CCCCCCCC)CCCCCCCC [Compound 144, Nonyl 8-((8-(dioctylamino)-8-oxooctyl)(2-hydroxyethyl)amino)octanoate] | 0.22 | 135.9 nm | 90.3% | 3.75E+08 | 4.81E+06 | 5.11E+07 | 319.46 | 4220.55 | 2.72E+06 p/s | 2.18E+07 p/s | 2.44E+06 | –
CCCCCCCCCOC(=O)CCCCCCCN(CCO)CCCCCCCOC(=O)C(CCCCCCCC)CCCCCCCC [Compound 30, 7-((2-Hydroxyethyl)(8-(nonyloxy)-8-oxooctyl)amino)heptyl 2-octyldecanoate] | 0.15 | 59.4 nm | 95.69% | 2.68E+09 | 1.02E+07 | 3.55E+07 | 152.51 | 1638.77 | 2.47E+06 p/s | 3.77E+07 p/s | 6.38E+06 | PDI [1, 7]: 0.13; Size (nm) [1, 7]: 76.3 nm; PDI [1, 8]: 0.12; Size (nm) [1, 8]: 81.7 nm; PDI [1, 9]: 0.11; Size (nm) [1, 9]: 89.8 nm; EE (%) [2, 7]: 96.32%; % EE [2, 8]: 93.0%; % EE [2, 9]: 93.1%; Novel lipid/MC3 expression ratio, 6 hr. time point, i.m. Luc (luciferase (Luc) mRNA [3]; intramuscular): 4.69
CCCCCC/C=C\COC(=O)CCCCCCCN(CCO)CCCCCCCC(=O)OC(CCCCCCCC)CCCCCCCC [Compound 24, Heptadecan-9-yl (Z)-8_((2-hydroxyethyl) (8-(non-2-en-1-yloxy)-8-oxooctyl)amino)octanoate] | 0.13 | 99.5 nm | 97.16% | 4.19E+09 | 1.71E+07 | 8.78E+07 | 163.53 | 1172.93 | 3.78E+06 p/s | 3.97E+07 p/s | 4.54E+06 | PDI [1, 8]: 0.17; Size (nm) [1, 8]: 88.5 nm; % EE [2, 8]: 90.5%
CCCCCCCCCOC(=O)CCCN(CCO)CCCCCCCC(=O)OC(CCCCCCCC)CCCCCCCC [Compound 26, Heptadecan-9-yl 8-((2-hydroxyethyl)(4-(nonyloxy)-4-oxobutyl)amino) octanoate] | 0.16 | 91.9 nm | 97.43% | 2.90E+09 | 1.18E+07 | 1.56E+07 | 273.56 | 2330.01 | 3.90E+06 p/s | 6.13E+07 p/s | 4.67E+06 | PDI (Polydispersity index) [1, 6]: 0.16 ± 0.03; PDI [1, 10]: 0.120; % Encapsulation [2]: 97.4 ± 0.2%; EE [2, 10]: 95.60%; Fold increase in Luc expression relative to MC3, Intramuscular (0.001 mpk dose) (luciferase (Luc) mRNA [3]; intramuscular): 0.56; Fold increase in Luc expression relative to MC3, Intramuscular (0.01 mpk dose) (luciferase (Luc) mRNA [3]; intramuscular): 1.39; IL-6 induction (IL-6, IP-10): highest; IP-10 induction (IL-6, IP-10): highest
CCCCCCCC/C=C\COC(=O)CCCCCN(CCO)CCCCCC(=O)OC/C=C\CCCCCCCC [Compound 140, Di((Z)-undec-2-en-1-yl) 6,6′-((2-hydroxyethyl)azanediyl)dihexanoate] | 0.84 | 120.3 nm | 89.2% | 4.21E+05 | 2.14E+04 | 2.22E+05 | 282.82 | 187.83 | 2.03E+05 p/s | 6.09E+05 p/s | 3.26E+04 | –

— patent publication US12263248B2, “Compounds and compositions for intracellular delivery of therapeutic agents” (ModernaTX, Inc., priority 2018, dated 2025)
